Measurements published in patent US20070003987A1, “Screening method for substance binding to merozoite surface protein-1/42” (priority 2003, published 2007).

Legend:
[1] = titration of fluorescent analogues in PBS buffer only; type: physicochemical; details: 0.01-200 μM
Protocol: Analogues 258, 261, 264 and 266 were titrated against (a) PBS buffer only, (b) 0.1 mg/ml bovine serum albumin in PBS or (c) 0.1 mg/ml MSP142 in PBS. Fluorescence observed was compared to naphthalenetrisulphate (non-specific reagent) and suramin.

P. falciparum (FCB-1) = assay: growth inhibition assay by [3H] hypoxanthine uptake; type: cell-based, Plasmodium falciparum; details: 200 μM
Protocol: Asexual blood stages of P. falciparum (FCB-1) were maintained at 37° C. in RPMI 1640/Albumax medium (Gibco) supplemented with 2 mM L-glutamine as previously described (Blackman, 1994 Methods Cell Biol. 45, 213-220). Cultures were gassed with 7% CO2, 5% O2 and 88% N2 and maintained by routine passage in fresh human erythrocytes. Parasites were synchronised by Percoll and sorbitol treatment (Holder & Freeman, 1982 J. Exp. Med. 156, 1528-1538); schizonts were purified by centrifugation over Percoll and then returned to culture in the presence of fresh erythrocytes. After 4 h, during which time released merozoites invaded erythrocytes, the cells were treated with 5% sorbitol for 10 min to lyse the residual schizonts, before returning the parasites to culture.
Suramin and NTS were also assayed for P. falciparum growth inhibition using [^3H] hypoxanthine uptake (generally as described by Desjardins et al, 1979 Antimicrob. Agents Chemother. 16, 710-718). Serial dilutions of the compounds in 96-well plates were incubated at 37° C. with purified mature schizonts at a final parasitaemia of ^˜0.5% and a haematrocrit of ^˜2% in triplicate cultures. […] The filters were wetted with scintillation cocktail and the bound radioactivity counted in a β-counter. […] The amount of radioactivity in each sample was expressed as a percentage of activity in the control wells containing no compound. […]

MSP142 [2] = target: T1, MSP142 (Plasmodium falciparum, UniProt Q8I0U8); assay: inhibition of suramin binding (fluorescence, 384-well plate); details: 10 μM analogue, 2 μM suramin, 0.1 mg/ml MSP142
Protocol: MSP142 (0.1 mg/ml), 10 μM suramin analogue and 2 μM suramin were combined in a 384-well black polypropylene low binding plate (total reaction volume 100 μL). Fluorescence was read at λex 320 nm/λem 405 nm on a BMG Polarstar fluorimeter. Readings were taken before, and 1 hour after, addition of suramin.
Target sequence in this assay (Q8I0U8 1327-1699): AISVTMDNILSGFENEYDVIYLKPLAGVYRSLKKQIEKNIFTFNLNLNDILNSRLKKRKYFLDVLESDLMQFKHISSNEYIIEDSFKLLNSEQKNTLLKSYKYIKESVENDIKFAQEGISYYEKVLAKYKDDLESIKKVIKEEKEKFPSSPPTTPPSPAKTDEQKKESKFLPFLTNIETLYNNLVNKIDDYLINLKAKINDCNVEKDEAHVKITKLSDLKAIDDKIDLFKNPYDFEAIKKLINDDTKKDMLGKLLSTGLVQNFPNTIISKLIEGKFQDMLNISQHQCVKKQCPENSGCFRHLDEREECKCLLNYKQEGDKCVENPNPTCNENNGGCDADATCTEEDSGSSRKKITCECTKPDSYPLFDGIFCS

MSP142 [3] = target: T1, MSP142; assay: P. falciparum MSP1 secondary processing assay (merozoites, Western blot); type: biochemical; parameters: Merozoites were purified as described previously; endogenous in cells; host or cells: purified P. falciparum merozoites released from mature schizonts; details: 1 mM, 1 h at 37° C.
Protocol: Merozoites were purified as described previously (Blackman 1994 Methods Cell Biol. 45, 213-220) after release from mature schizonts into growth medium supplemented with 2 mM EGTA. Merozoites were harvested by centrifugation, followed by sequential passage through pre-wetted filters of 3 and 1.2 μm pore size. Merozoites were washed in Ca^2+- and Mg^2+-free PBS in the presence of protease inhibitors (leupeptin, antipain and aprotinin at 10 μg ml^−1). The merozoites were then washed and resuspended in 50 mM Tris-HCl pH 7.2, 5 mM CaCl2, 1 mM MgCl2, plus leupeptin, antipain and aprotinin at 10 μg ml^−1 (processing buffer), and divided into 18 μl aliquots. Two microlitres of either diluted compound or reaction buffer were added and the samples incubated for 1 h at 37° C. Control assays included those in which processing was prevented by immediate addition of either SDS, 1 mM PMSF or 5 mM EGTA; and those in the absence of compound or in the presence of 0.2 mM TLCK (tosyl-L-lysyl chloromethyl ketone). After 1 h the reaction was stopped, and MSP1 processing was analysed using a Western blot-based assay (Blackman 1994 Methods Cell Biol. 45, 213-220). The blots were probed with a rabbit anti-MSP133/MSP142 antibody and the bands corresponding to MSP142 and MSP133 polypeptides were visualised by enhanced chemiluminescence.
Purified merozoites were incubated in the presence or absence of suramin or NTS and polypeptides subjected to SDS-PAGE and Western blotting.
Target sequence in this assay (Q8I0U8 20-1326): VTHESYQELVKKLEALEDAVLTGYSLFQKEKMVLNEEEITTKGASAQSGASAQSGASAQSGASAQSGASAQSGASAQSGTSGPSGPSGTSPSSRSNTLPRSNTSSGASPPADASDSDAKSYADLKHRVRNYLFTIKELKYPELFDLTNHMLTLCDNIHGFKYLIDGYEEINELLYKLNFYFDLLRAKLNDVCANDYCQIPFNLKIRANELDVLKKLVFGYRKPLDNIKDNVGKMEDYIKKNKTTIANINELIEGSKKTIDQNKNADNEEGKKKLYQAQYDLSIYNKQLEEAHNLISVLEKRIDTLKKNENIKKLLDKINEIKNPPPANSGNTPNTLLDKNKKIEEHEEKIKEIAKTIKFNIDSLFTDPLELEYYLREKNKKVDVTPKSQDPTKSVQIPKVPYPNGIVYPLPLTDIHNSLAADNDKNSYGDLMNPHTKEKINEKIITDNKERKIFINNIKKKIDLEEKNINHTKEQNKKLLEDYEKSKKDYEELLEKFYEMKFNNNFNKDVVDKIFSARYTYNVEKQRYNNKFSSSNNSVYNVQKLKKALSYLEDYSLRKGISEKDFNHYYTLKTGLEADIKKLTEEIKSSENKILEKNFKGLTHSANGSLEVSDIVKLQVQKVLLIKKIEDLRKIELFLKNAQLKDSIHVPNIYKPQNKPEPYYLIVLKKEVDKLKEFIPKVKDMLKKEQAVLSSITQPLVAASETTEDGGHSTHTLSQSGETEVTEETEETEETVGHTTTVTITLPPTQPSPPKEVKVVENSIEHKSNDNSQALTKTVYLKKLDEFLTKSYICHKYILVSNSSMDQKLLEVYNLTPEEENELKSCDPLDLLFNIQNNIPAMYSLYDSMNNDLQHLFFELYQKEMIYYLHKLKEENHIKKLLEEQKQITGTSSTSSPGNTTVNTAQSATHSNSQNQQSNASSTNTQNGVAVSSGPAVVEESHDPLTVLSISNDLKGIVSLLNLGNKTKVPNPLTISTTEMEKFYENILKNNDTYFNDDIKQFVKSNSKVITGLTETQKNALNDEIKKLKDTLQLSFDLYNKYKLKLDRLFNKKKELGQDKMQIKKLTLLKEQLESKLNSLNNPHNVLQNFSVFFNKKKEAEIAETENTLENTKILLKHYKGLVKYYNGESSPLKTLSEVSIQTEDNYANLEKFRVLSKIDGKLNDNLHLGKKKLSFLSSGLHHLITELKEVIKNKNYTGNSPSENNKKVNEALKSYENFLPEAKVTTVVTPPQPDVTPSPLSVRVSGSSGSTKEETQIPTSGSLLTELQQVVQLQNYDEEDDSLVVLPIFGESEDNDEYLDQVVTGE
Target sequence in this assay (Q8I0U8 1327-1699): as the sequence (Q8I0U8 1327-1699) above

Row | SMILES | fluorescence in buffer alone [1] | inhibition of invasion at the highest concentration tested (P. falciparum (FCB-1)) | effect on the fluorescent signal of suramin / own fluorescence (MSP142 [2]) | inhibition of MSP142 secondary processing (MSP142 [3])
1 | O=S(=O)(O)c1ccc2c(S(=O)(=O)O)cc(S(=O)(=O)O)cc2c1 [NTS, Naphthalene-1,3,6-trisulphonic acid] | fluorescent in buffer alone | did not inhibit invasion | most fluorescent compound tested | 
2 | O=S(=O)(F)Cc1ccccc1 [PMSF] |  |  |  | absence of MSP133
